The subject of one data set is BaF3 cells. As to the kind of experiment: Proliferation inhibition based on BaF3 cells (IL-3 medium, CTG). The data set is classed as cell-based. Particulars: Mus musculus, medium containing IL-3, read-out: IC50 (uM), proliferation inhibitory activity on BaF3 cells. As for the experimental part:
1. Cell plating: cultured cells were collected with RPMI1640+10% FBS (containing IL-3) medium and counted for viable cells with Vi-Cell XR cell counter. The cell suspension was adjusted to an appropriate concentration with RPMI1640+10% FBS (containing IL-3) medium and then added to a 96-well cell culture plate. A certain amount of cell suspension was added to each well of the 96-well cell culture plate. The cells were cultured in corresponding incubators.
(§1) 2. Drug treatment: a series of test compound concentration (work solution-1) was prepared using DMSO with 3× gradient dilution, and then it was subjected to fold dilution with RPMI1640+10% FBS (containing IL-3) to obtain a work solution-2; Cisplatin's work solution-2 was prepared with RPMI1640+10% FBS (containing IL-3), and then 1-10 μL solution taken from the work solution-2 was added to the prepared cell wells containing medium. The cells were cultured in the corresponding incubators. An appropriate CTG solution was added to each well.
(§2) Cell Survival Rate Calculation
(§3) T is the luminescence reading of a drug treatment group, and C is the average luminescence reading of a solvent control group.

The test system of another data set is THP1 cells. As to the kind of experiment: Proliferation inhibition based on THP1 cells (IL-4 stimulation, CTG). Particulars: Homo sapiens, THP-1, read-out: IC50 (uM), proliferation inhibitory activity on THP1 cells. The data set is classed as cell-based. The procedure:
1. Cell plating: cultured cells were collected and counted for viable cells with Vi-Cell XR cell counter. The cell suspension was adjusted to an appropriate concentration with the medium and then added to a 96-well cell culture plate. 80 μL of the cell suspension was added to each well of the 96-well cell culture plate. The cell plating density depended on the growth rate of the cells. The cells were cultured in corresponding incubators.
as §1, with “treatment and IL-4 stimulation: firstly,” for “treatment:”, “FBS” for “FBS (containing IL-3)”, “FBS,” for “FBS (containing IL-3),”, “incubators. After incubation, 1-10 μL of IL-4 medium was added to each well and continued to culture.” for “incubators.”
Cell Survial Rate Calculation
as §3

The target in a further data set is JAK1 (Homo sapiens, UniProt P23458). As to the kind of experiment: JAK kinase inhibitory activity, HTRF biochemical assay. The procedure: (§4) The compounds of the above embodiments were applied to the detection and screening of JAK kinase inhibitory activity.
JAK1, sequence (P23458 whole entry, species assumed): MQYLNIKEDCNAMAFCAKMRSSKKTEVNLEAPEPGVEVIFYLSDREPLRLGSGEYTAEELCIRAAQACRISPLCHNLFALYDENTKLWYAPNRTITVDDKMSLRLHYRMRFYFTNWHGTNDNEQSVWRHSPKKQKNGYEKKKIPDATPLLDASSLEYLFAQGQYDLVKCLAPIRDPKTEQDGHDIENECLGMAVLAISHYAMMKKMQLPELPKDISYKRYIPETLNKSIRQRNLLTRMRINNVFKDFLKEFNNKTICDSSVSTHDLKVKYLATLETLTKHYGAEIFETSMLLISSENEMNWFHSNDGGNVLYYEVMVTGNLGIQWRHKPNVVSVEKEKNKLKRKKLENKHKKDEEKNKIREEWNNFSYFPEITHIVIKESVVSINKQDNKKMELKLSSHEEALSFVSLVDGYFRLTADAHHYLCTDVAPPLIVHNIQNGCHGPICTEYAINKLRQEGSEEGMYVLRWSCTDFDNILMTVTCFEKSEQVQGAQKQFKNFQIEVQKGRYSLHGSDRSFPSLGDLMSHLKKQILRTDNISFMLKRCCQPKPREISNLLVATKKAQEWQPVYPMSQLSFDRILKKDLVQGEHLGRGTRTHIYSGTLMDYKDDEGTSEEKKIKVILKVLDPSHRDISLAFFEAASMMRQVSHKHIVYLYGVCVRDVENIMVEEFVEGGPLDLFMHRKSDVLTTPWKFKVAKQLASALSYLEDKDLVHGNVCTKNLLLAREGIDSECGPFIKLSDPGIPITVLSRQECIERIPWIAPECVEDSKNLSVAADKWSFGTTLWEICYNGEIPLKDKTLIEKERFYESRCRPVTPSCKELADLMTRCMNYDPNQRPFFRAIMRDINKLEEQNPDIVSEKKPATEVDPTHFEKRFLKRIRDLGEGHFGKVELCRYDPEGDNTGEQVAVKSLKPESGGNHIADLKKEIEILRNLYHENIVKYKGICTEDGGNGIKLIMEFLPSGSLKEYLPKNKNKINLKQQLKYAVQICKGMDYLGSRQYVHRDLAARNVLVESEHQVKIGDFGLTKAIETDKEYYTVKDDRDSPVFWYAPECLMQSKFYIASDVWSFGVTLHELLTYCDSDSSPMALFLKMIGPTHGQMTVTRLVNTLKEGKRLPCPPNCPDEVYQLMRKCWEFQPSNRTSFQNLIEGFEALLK
(§5) A corresponding volume of DMSO was added to each well of a first 96-well plate. 20-30 μL of 100-200 μM stock solution of different test compounds were added to each well. The mixture was shaken and mixed for 3 min. All of the compounds were subjected to 3× serial dilution. 60-80 μL Kinase buffer was added to each well of a second 96-well plate, and 1-2 μL of the solution taken from each well of the first 96-well plate was added to the corresponding well of the second 96-well plate. The mixture was shaken and mixed for 3 min. 5 μL of compound dilution taken from each well of the second compound dilution plate was transferred to the corresponding well of a 384-well test plate. 1-2 μL TK Substrate-biotin was added to each well of the test plate. 1-2 μL of enzyme mixture was added to each well. At the same time, a blank well without enzyme was set. 1-2 μL of ATP solution was added to each well, the plate was sealed and reacted at room temperature. The reaction time was as follows: JAK1: 2 h, JAK2: 30 min, JAK3: 30 min, and TYK2: 50 min. 3-5 μL of Streptavidin-XL665 and 3-5 μL of TK Antibody-cryptate were added to each well, the plate was sealed and allowed to stand at room temperature for 30 min to complete the reaction.
(§6) The percentage of inhibition was calculated based on the following formula:
(§7) Inhibition %=[(Ratiomax−Ratiocompound)/(Ratiomax−Ratiomin)]×100%
(§8) Ratiocompound is the HTRF ratio at a given compound concentration, Ratiomin is the HTRF ratio added to the blank well, and Ratiomax is the HTRF ratio without adding the compound. GraphPad Prism 5.0 software was used to plot a sigmoid dose-inhibition rate curve with a non-linear regression model and calculate the IC50 value.

The target of another data set is JAK2 (Homo sapiens, UniProt O60674). The data set is described as above. The procedure: as §4, §5, §6, §7, §8
JAK2, sequence (O60674 whole entry, species assumed): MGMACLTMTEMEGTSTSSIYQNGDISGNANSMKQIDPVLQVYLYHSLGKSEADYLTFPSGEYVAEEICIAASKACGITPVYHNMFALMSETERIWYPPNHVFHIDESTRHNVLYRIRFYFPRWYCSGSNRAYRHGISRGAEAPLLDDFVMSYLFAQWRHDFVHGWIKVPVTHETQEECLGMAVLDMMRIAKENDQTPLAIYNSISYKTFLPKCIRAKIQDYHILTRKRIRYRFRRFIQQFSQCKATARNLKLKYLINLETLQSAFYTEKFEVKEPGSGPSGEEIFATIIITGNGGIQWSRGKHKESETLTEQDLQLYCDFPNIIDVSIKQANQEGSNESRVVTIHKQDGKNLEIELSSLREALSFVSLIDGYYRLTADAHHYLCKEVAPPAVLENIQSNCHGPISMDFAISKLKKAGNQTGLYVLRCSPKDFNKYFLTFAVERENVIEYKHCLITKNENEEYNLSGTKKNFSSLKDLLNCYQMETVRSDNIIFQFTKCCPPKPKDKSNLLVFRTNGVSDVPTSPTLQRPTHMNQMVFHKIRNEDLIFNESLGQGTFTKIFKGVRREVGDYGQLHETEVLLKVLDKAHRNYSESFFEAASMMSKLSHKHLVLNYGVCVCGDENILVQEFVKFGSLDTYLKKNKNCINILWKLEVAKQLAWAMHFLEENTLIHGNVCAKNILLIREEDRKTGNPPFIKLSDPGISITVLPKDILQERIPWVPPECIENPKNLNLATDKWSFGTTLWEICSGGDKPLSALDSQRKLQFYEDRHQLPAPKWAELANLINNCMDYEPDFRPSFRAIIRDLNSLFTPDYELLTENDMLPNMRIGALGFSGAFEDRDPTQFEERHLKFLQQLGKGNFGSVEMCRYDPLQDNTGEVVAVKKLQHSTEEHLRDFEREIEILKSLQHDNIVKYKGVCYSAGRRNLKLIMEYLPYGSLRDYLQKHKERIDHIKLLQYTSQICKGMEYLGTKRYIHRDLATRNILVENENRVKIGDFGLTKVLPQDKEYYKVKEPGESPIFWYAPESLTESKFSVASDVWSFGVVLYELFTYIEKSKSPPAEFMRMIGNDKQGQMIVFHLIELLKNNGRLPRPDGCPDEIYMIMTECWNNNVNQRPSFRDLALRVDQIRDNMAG
Another data set concerns Hela cells. As to the kind of experiment: Proliferation inhibition based on Hela cells (OSM stimulation, CTG). The data set is classed as cell-based. Particulars: Homo sapiens, read-out: IC50 (uM), proliferation inhibitory activity on Hela cells. As for the experimental part: 1. Cell plating: cultured cells were collected and counted for viable cells with Vi-Cell XR cell counter. The cell suspension was adjusted to an appropriate concentration with the medium and then added to a 96-well cell culture plate. 50 μL-100 μL of the cell suspension was added to each well of the 96-well cell culture plate. The cell plating density depended on the growth rate of the cells. The cells were cultured in corresponding incubators.
2. Drug Treatment and OSM Stimulation
Firstly, a series of test compound concentration (work solution-1) was prepared using DMSO with 3× gradient dilution, and then it was subjected to fold dilution with RPMI1640+10% FBS to obtain a work solution-2; Cisplatin's work solution-2 was prepared with RPMI1640+10% FBS, and then 1-10 μL solution taken from the work solution-2 was added to the prepared cell wells containing medium. After incubation, 1-10 μL of OSM medium was added to each well and continued to culture. An appropriate CTG solution was added to each well. The mixture was shaken and mixed for 1-5 min and then a luminescence signal was determined with an Envision2104 plate reader.
as §2, §3

A further data set deals with rat CIA model. Kind of data set: Hindfoot foot volume in rat CIA model. The data set is classed as in vivo, Lewis rats. The settings on record: CIA rats, hindfoot, 10 mg/kg oral gavage once daily for 2 w.
The next data set can be described thus: Pharmacokinetic study. Particulars: rat, plasma; rats, oral, 1-10 mg/kg. The data set is classed as in vivo. The procedure: For the intravenous route and the oral route, the compound was formulated in an aqueous solution containing 5% DMSO+95% hydroxypropyl-β-cyclodextrin. Test animals were administered orally at 1-10 mg/kg and intravenously at 1-5 mg/kg. Each group included 3 rats. About 0.2 mL of blood was collected by jugular vein puncture with heparin sodium anticoagulant at the following time points: 0.083 h, 0.25 h, 0.5 h, 1 h, 2 h, 4 h, 6 h, 8 h, 10 h and 24 h. Plasma was separated by centrifugation at 5000-13000 rpm for 10 min within 1 hour after collecting the blood sample, and the plasma sample was analyzed on LC-MS/MS.
The pharmacokinetic parameters were calculated using Phoenix WinNonlin 7.0 based on blood drug concentration data at different time points to provide parameters such as AUC0-t, AUC0-∞, MRT0-∞, Cmax, Tmax, and T1/2.

For the next data set, the target named is TYK2 (Homo sapiens, UniProt P29597). As to the kind of experiment: JAK kinase inhibitory activity, HTRF biochemical assay. The procedure:
as §4, §5, §6, §7, §8

The target of a further data set is T1, JAK3 (Homo sapiens, UniProt P52333).
T1 sequence (P52333 1-1124): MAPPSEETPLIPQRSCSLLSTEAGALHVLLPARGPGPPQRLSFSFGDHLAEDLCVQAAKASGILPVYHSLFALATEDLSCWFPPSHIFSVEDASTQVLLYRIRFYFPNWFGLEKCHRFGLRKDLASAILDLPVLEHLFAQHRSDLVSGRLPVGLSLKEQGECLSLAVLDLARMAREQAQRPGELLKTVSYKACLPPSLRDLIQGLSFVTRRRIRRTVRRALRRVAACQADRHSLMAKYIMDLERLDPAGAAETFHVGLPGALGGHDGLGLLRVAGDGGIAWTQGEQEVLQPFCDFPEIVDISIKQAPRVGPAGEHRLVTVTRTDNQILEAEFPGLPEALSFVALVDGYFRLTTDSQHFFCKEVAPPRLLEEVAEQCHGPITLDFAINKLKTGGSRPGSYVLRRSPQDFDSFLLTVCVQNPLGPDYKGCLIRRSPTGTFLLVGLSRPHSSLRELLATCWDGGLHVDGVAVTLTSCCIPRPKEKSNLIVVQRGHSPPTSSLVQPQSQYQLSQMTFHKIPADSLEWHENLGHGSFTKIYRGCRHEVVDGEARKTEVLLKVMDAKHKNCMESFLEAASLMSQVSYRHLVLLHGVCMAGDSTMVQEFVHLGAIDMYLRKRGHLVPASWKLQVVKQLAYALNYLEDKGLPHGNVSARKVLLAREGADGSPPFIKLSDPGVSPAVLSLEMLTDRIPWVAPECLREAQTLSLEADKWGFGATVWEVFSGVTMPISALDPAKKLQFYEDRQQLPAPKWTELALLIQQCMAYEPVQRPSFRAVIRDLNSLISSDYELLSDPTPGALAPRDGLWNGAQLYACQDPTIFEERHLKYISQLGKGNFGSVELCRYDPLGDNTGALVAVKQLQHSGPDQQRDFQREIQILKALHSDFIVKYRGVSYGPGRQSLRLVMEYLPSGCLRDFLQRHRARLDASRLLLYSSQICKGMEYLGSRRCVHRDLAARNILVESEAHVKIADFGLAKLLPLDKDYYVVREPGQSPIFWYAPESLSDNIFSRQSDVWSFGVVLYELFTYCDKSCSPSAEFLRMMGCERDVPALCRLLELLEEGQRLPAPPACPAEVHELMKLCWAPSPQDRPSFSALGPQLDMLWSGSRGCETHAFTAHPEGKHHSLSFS
The data set is described as above. As for the experimental part: as §4, §5, §6, §7, §8

Where two headings read alike, the source gives them in different places.

The AUC is concentration integrated over time. Usually Cmax stands for the peak of the concentration-time curve. Usually half-life stands for the time needed for the level to fall by half in the phase considered. High values mean slow loss, low ones fast loss.

TYK2, sequence (P29597 whole entry, species assumed): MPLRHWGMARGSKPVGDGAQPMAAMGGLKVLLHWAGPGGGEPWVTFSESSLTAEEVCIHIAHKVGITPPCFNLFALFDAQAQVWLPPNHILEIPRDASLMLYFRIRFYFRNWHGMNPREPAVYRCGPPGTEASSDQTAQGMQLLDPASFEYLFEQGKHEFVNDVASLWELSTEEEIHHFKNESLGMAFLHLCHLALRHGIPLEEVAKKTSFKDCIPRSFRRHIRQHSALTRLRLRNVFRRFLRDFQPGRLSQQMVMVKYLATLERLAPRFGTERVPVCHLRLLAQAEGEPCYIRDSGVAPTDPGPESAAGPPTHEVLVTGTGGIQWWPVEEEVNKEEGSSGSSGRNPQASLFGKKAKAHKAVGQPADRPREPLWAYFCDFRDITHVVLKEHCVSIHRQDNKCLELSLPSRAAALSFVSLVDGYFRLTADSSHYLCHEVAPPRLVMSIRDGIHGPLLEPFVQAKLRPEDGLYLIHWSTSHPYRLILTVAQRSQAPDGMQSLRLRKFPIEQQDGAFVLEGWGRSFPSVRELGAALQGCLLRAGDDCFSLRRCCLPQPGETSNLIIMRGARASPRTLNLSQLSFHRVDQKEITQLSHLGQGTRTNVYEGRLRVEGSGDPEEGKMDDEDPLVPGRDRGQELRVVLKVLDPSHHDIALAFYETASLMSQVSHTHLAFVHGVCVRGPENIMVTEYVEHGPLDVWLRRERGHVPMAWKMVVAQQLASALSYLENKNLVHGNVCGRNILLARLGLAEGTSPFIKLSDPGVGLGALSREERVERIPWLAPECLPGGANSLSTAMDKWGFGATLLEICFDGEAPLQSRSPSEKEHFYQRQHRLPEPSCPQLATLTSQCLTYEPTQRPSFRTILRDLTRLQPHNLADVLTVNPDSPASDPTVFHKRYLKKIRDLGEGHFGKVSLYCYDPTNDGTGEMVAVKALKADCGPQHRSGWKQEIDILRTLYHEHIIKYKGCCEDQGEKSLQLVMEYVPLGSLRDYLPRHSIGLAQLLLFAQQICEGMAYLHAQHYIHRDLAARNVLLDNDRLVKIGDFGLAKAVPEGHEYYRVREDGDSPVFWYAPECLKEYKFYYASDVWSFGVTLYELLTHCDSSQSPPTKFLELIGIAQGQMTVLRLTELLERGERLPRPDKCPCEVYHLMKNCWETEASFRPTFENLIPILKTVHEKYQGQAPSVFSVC
Protocol for rat CIA model: Lewis rats (female, 10-12 weeks old) were obtained from Beijing Vital River Laboratory Animal Technology Co., Ltd. The rats were on a light and dark alternation for 12 h, and the environment was kept at a temperature of 23±2° C. and a humidity of 40-70%.
Type II collagen solution (2 mg/mL) was prepared with 0.05 M acetic acid solution to allow to be fully dissolved, and placed overnight in the dark at 4° C. During the test, 2 mg/mL type II collagen (C II) solution and 4 mg/mL complete Freund's adjuvant (CFA) solution were mixed in equal volumes under ice bath conditions to fully emulsify. On day 0, an emulsion prepared by mixing equal volumes of C II (2 mg/mL) and CFA (4 mg/mL) was injected intracutaneously into the base of the tail of experimental rats for primary immunization, and on day 7, secondary booster immunization was performed.
The therapeutic effect of the test compound was tested in a rat CIA model. The rats were randomly divided into groups with 8 animals in each group. All animals were immunized on day 0 and boosted on day 7.
Therefore, the differences in body weight and foot volume after the onset of arthritis compared with the negative group, respectively, can be used to evaluate the therapeutic effect in the rat model. The experimental data were expressed as Mean±SEM; the data between the two groups was tested by unpaired t-test and p<0.05 was considered as a significant difference.

Turning to `O=C(Nc1nc2cccc(-c3ccc(CN4CCS(=O)(=O)CC4)s3)n2n1)[C@H]1C[C@H]1F` (relative stereo) [EXP-5, N-[5-[4-[(1,1-dioxothiomorpholine)methyl]thienyl]-[1,2,4]triazolo[1,5-a]pyridin-2-yl]-cis-2-fluoro-cyclopropanecarboxamide], the IC50 with BaF3 cells is below 5 µM; in the data set with THP1 cells it was below 5 µM; at JAK1, 50 to 500 nM; at JAK2 it was 50 to 500 nM; in the data set on Hela cells (OSM stimulation), 5 to 30 µM.
On to `Cc1cc(-c2cccc3nc(NC(=O)C4CC4)nn23)sc1CN1CCS(=O)(=O)CC1` [EXP-2], for which the IC50 with BaF3 cells was below 5 µM; in the data set on THP1 cells, below 5 µM; against JAK1, 50 to 500 nM; against JAK2, 50 to 500 nM; in the data set on Hela cells (OSM stimulation), below 5 µM.
Turning to `O=C(Nc1nc2cccc(-c3ccc(CN4CCS(=O)(=O)CC4)cc3)n2n1)C1CC1` [Filgotinib, reference compound], the “Foot volume (ml)/Day” value stood at 2.597 ± 0.014 mL in the data set on rat CIA model (day 0); 2.589 ± 0.020 mL in the data set on rat CIA model (day 8); 2.700 ± 0.090 mL in the data set on rat CIA model (day 11); 3.644 ± 0.330 mL in the data set on rat CIA model (day 14); 4.702 ± 0.255 mL in the data set with rat CIA model (day 17); 4.829 mL with rat CIA model (day 21). Besides, the “Foot volume (ml)/Day” value was determined as 4.769 mL in the data set on rat CIA model (day 24) and 4.363 mL with rat CIA model (day 28). In addition, the IC50 in the data set on BaF3 cells, in the data set on THP1 cells and in the data set with Hela cells was 5 to 30 µM throughout. The same molecule displayed an AUC in “Pharmacokinetic study” of 2850 ng·h/mL. Moreover, in the data set “Pharmacokinetic study”, the peak level (Cmax) was 426 ng/mL. In addition, in the data set “Pharmacokinetic study”, the half-life is 3.9 h.
For the molecule `O=C(Nc1nc2cccc(-c3ccc(CN4CCS(=O)(=O)CC4)s3)n2n1)[C@H]1C[C@@H]1F` [EXP-6], the IC50 against TYK2 is above 500 nM; against JAK1, 50 to 500 nM; at JAK3, above 500 nM; against JAK2 it was 50 to 500 nM.

The values are drawn from US20220274983A1, “JAK KINASE INHIBITOR AND USE THEREOF” (JIANGSU CAREPHAR PHARMACEUTICAL CO., LTD., priority 2019, published 2022).
